The target of this experiment is T1, BMPRII (Homo sapiens, UniProt Q13873).
T1 construct: purchased R&D
T1 sequence (Q13873 27-151 limits assumed): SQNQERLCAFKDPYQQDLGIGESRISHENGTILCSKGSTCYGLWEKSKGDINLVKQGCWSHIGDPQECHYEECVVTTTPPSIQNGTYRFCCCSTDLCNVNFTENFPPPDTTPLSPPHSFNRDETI
Kind of experiment: SPR binding of peptides to immobilized BMPRII. The settings on record: for kon / koff: BMPRII immobilized on COOH5 chip (2000 RU), peptide injected 120 s at 5 μL/min, 5 min dissociation; for kon: read-out: Association Rate Constant ka; for koff: read-out: Dissociation Rate Constant kd. The protocol: SPR was performed using SensiQ discovery ((ICX Nomadics, Oklahoma City, OK, USA) SPR. For the affinity experiments, all the samples were dissolved in phosphate-buffered saline (PBS, pH 7.4) (UniRegion Bio-Tech, New Taipei City, Taiwan) containing 150 mM NaCl (St. Louis, MI, USA). The same buffer was also used as the running buffer. To immobilize the BMPRII, the active and reference flow cells of a COOH5 sensor chip (ICX Nomadics, Oklahoma City, OK, USA) carboxylic chip were activated with 1-ethyl-3-(3-(dimethylamino)-propyl) carbodiimide hydrochloride (EDC) and N-hydroxysuccinimide (NHS) (Cytiva, Marlborough, MA, USA) for 5 min. BMPRII protein diluted to 20 μg/mL with acetate buffer (pH4.5) (APOLO biochemical Inc., New York, NY, USA) was injected over the active cell for 3 min at 10 μL/min, resulting in an immobilization level of 2000 RU. Both the reference flow cell and active flow cell were blocked with ethanolamine (Bio Rad, Hercules, CA, USA), pH 8.5 for 6 min. The system was then switched to running buffer, and different concentrations of the peptide were injected for 120 s at 5 μL/min, with 5 min of dissociation. The binding data were analyzed using the BIA-evaluation software 3.0 (BIACORE, Uppasala, Sweden).
We first investigated the binding affinity of these five peptides for BMPRII using SPR. Each peptide was individually passed over a Sensiq […] chip pre-immobilized with BMPRII.
(In general: In SPR one partner is held on a chip, and binding of the other changes the refractive index at the surface.)

Where [1] appears, read: BMPRII immobilized on COOH5 chip, PBS pH 7.4 with 150 mM NaCl, P-02 from saturation binding curve, read-out: Equilibrium Rate Constant KD.

Where two headings read alike, the source gives them in different places. Positions of bridges follow the written chain, without caps; N, C: chain ends. Residues, ends and D or L forms follow the SMILES beside them.

Regarding `CC[C@H](C)[C@H](NC(=O)[C@H](C)NC(=O)[C@H](CO)NC(=O)[C@H](CC(C)C)NC(=O)[C@H](CCC(=O)O)NC(=O)[C@@H](NC(=O)[C@@H]1CCCN1C(=O)[C@@H](NC(=O)[C@H](CO)NC(=O)[C@H](CO)NC(=O)[C@H](C)NC(=O)[C@H](CCCCN)NC(=O)[C@@H]1CCCN1C(=O)[C@@H](NC(=O)[C@@H](N)CCCCN)[C@@H](C)CC)C(C)C)[C@@H](C)O)C(=O)N[C@@H](CO)C(=O)N[C@H](C(=O)N[C@@H](CC(C)C)C(=O)N[C@@H](Cc1ccc(O)cc1)C(=O)N[C@@H](CC(C)C)C(N)=O)[C@@H](C)O` [P-01] (H-KIPKASSVPTELSAISTLYL-NH2), where the note is “PBS pH 7.4 with 150 mM NaCl”, the kon amounted to 0.27 M⁻¹ s⁻¹ and the koff is 0.0221 s⁻¹.
With `CC[C@H](C)[C@H](NC(=O)[C@H](C)NC(=O)[C@H](CO)NC(=O)[C@@H]1CSSC[C@H](N)C(=O)N[C@@H](CCCCN)C(=O)N[C@@H]([C@@H](C)CC)C(=O)N2CCC[C@H]2C(=O)N[C@@H](CCCCN)C(=O)N[C@@H](C)C(=O)N[C@@H](CO)C(=O)N[C@@H](CO)C(=O)N[C@@H](C(C)C)C(=O)N2CCC[C@H]2C(=O)N[C@@H]([C@@H](C)O)C(=O)N[C@@H](CCC(=O)O)C(=O)N[C@@H](CC(C)C)C(=O)N1)C(=O)N[C@@H](CO)C(=O)N[C@H](C(=O)N[C@@H](CC(C)C)C(=O)N[C@@H](Cc1ccc(O)cc1)C(=O)N[C@@H](CC(C)C)C(N)=O)[C@@H](C)O` [P-03] (H-CKIPKASSVPTELCSAISTLYL-NH2; disulfide 1-14), under “PBS pH 7.4 with 150 mM NaCl”, the kon came out at 352 M⁻¹ s⁻¹ and the koff is 0.0333 s⁻¹.
One may read the Kd as the free concentration of one partner at which half of the binding sites on the other are occupied at equilibrium, for simple one-to-one binding. Consider `CC[C@H](C)[C@@H]1NC(=O)[C@H](C)NC(=O)[C@H](CO)NC(=O)[C@H](CC(C)C)NC(=O)[C@H](CCC(=O)O)NC(=O)[C@H]([C@@H](C)O)NC(=O)[C@@H]2CCCN2C(=O)[C@H](C(C)C)NC(=O)[C@@H](NC(=O)[C@H](CO)NC(=O)[C@H](CO)NC(=O)[C@H](C)NC(=O)[C@H](CCCCN)NC(=O)[C@@H]2CCCN2C(=O)[C@@H](NC(=O)[C@@H](N)CCCCN)[C@@H](C)CC)CSSC[C@@H](C(N)=O)NC(=O)[C@H](CC(C)C)NC(=O)[C@H](Cc2ccc(O)cc2)NC(=O)[C@H](CC(C)C)NC(=O)[C@H]([C@@H](C)O)NC(=O)[C@H](CO)NC1=O` [P-04] (H-KIPKASSCVPTELSAISTLYLC-NH2; disulfide 8-22), for which, under “PBS pH 7.4 with 150 mM NaCl”, the kon worked out at 460 M⁻¹ s⁻¹ and the koff worked out at 0.0106 s⁻¹. Further, the Kd under setting [1] worked out at 23.1 µM.
For `CC[C@H](C)[C@@H]1NC(=O)[C@H](C)NC(=O)[C@H](CO)NC(=O)[C@H](CC(C)C)NC(=O)[C@H](CCC(=O)O)NC(=O)[C@H]([C@@H](C)O)NC(=O)[C@@H]2CCCN2C(=O)[C@H](C(C)C)NC(=O)[C@H](CO)NC(=O)[C@H](CO)NC(=O)[C@H](C)NC(=O)[C@H](CCCCN)NC(=O)[C@@H]2CCCN2C(=O)[C@H]([C@@H](C)CC)NC(=O)[C@H](CCCCN)NC(=O)[C@@H](N)CSSC[C@@H](C(N)=O)NC(=O)[C@H](CC(C)C)NC(=O)[C@H](Cc2ccc(O)cc2)NC(=O)[C@H](CC(C)C)NC(=O)[C@H]([C@@H](C)O)NC(=O)[C@H](CO)NC1=O` [P-05] (H-CKIPKASSVPTELSAISTLYLC-NH2; disulfide 1-22), in that order: 37.8 M⁻¹ s⁻¹, 0.000487 s⁻¹ and 12.9 µM.
For the molecule “P-02: Cyclic disulfide BMP-2 peptide, N-terminal and C-terminal regions outside the cyclic structure (KIPKCSSVPTELSCISTLYL; not fully specified; Intramolecular disulfide Cys5-Cys14; probably C-terminal amide (Rink amide resin); Parent is BMP-2 mature 73-92 (offset +282) in the P)”, the dissociation constant (Kd) is, setting by setting: under setting [1], 80.6 µM; (as printed in text b26 without unit, read-out: equilibrium rate constant (KD) against BMPRII) 80.6 µM.

For the origin of these results see paper PMC8347162, “A Cyclic BMP-2 Peptide Upregulates BMP-2 Protein-Induced Cell Signaling in Myogenic Cells” (Polymers, 2021).
